Data reported in patent publication US20230295118A1 (EnhancedBio Inc., priority 2022, published 2023).

Tests used:
Assay type in all cases: cell-based
[1] = system: mantle cell lymphoma cell (Mino or JeKo-1); experiment: Antiproliferative effect, MTS cell viability assay; conditions: 72 h, mantle cell lymphoma cell (Mino or JeKo-1), MTS assay, read-out: IC50 (anti-proliferation)
Experimental: Antiproliferative effect of the exemplary compounds was assessed in B-cell malignancy models.
To assess the effect of the exemplary compounds on cell viability in B-cell malignancy models by degradation of CDK4/6 proteins, Mino cells were treated with varying concentrations of exemplary compounds (0, 0.0001, 0.001, 0.01, 0.1, 1 μM) or positive control (palbociclib and abemaciclib). Under these conditions, cell viability was determined by an MTS assay. Cytotoxicity was assayed by the determination of reduced tetrazolium (formazan) created by metabolically active cells as detected at 490 nanometers (nm) absorbance using a microplate reader (BMG Labtech, Cary, NC, USA).
The exemplary compounds attenuated the viability of Mino cells in a concentration-dependent manner at 72 h post treatment. Results are shown in Table 1 and FIGS. 2-15 for each exemplary compound.

CDK6 = molecular target: T1, CDK6 (Homo sapiens, UniProt Q00534); experiment: CDK6 degradation (DC50, Dmax)
T1 construct: endogenous in cells
T1 sequence (Q00534 whole entry): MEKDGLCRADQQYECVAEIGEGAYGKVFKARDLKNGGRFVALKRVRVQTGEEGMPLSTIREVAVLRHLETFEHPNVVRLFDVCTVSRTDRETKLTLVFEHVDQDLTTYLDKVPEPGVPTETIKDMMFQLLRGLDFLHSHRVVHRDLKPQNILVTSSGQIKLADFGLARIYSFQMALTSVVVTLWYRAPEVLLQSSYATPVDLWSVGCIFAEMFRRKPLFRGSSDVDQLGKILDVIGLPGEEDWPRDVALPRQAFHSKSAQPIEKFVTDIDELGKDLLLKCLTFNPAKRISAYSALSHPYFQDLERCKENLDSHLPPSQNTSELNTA

CDK4 = molecular target: T2, CDK4 (Homo sapiens, UniProt P11802); experiment: CDK4 degradation (DC50, Dmax)
T2 construct: endogenous in cells
T2 sequence (P11802 whole entry): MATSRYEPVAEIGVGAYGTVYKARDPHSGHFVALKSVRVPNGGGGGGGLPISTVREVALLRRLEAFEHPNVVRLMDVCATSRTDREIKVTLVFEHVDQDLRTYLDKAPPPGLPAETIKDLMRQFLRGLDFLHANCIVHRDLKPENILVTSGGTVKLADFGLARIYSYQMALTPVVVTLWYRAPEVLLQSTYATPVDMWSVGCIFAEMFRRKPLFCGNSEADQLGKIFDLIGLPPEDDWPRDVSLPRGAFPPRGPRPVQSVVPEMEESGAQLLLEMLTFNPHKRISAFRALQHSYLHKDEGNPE

Row | SMILES | IC50 [1] | DC50 (CDK6) | Dmax (CDK6) | DC50 (CDK4) | Dmax (CDK4)
1 | CC(=O)c1c(C)c2cnc(Nc3ccc(N4CCN(C(=O)C5CCN(c6ccc7c(c6)C(=O)N(C6CCC(=O)NC6=O)C7=O)CC5)CC4)cn3)nc2n(C2CCCC2)c1=O (stereo not drawn) [Compound 114, 5-(4-(4-(6-((6-acetyl-8-cyclopentyl-5-methyl-7-oxo-7,8-dihydropyrido[2,3-d]pyrimidin-2-yl)amino)pyridin-3-yl)piperazine-1-carbonyl)piperidin-1-yl)-2-(2,6-dioxopiperidin-3-yl) isoindoline-1,3-dione] | < 50 nM | 50 to 200 nM | > 80% | 50 to 200 nM | > 80%
2 | CC(=O)c1c(C)c2cnc(Nc3ccc(N4CCN(C(=O)N5CCN(CCN6CCC(c7ccc8c(c7)CN(C7CCC(=O)NC7=O)C8=O)CC6)CC5)CC4)cn3)nc2n(C2CCCC2)c1=O (stereo not drawn) [Compound 28, 3-(5-(1-(2-(4-(4-(6-((6-acetyl-8-cyclopentyl-5-methyl-7-oxo-7,8-dihydropyrido[2,3-d]pyrimidin-2-yl)amino)pyridin-3-yl)piperazine-1-carbonyl)piperazin-1-yl)ethyl)piperidin-4-yl)-1-oxoisoindolin-2-yl)piperidine-2,6-dione] | 50 to 200 nM | > 200 nM | > 60% | > 200 nM | > 60%
3 | Cc1nc2c(F)cc(-c3nc(Nc4ccc(CC5CCN(CC6CCN(c7ccc(NC8CCC(=O)NC8=O)cc7)CC6)CC5)cn4)ncc3F)cc2n1C(C)C (stereo not drawn) [Compound 160, 3-((4-(4-((4-((6-((5-fluoro-4-(4-fluoro-1-isopropyl-2-methyl-1H-benzo[d]imidazol-6-yl)pyrimidin-2-yl)amino)pyridin-3-yl)methyl)piperidin-1-yl)methyl)piperidin-1-yl)phenyl)amino) piperidine-2,6-dione] | < 50 nM | < 50 nM | > 80% | < 50 nM | > 80%
4 | CC(=O)c1c(C)c2cnc(Nc3ccc(N4CCN(CC5CCN(C(=O)Nc6ccc7c(c6)CN(C6CCC(=O)NC6=O)C7=O)CC5)CC4)cn3)nc2n(C2CCCC2)c1=O (stereo not drawn) [Compound 42, 4-((4-(6-((6-acetyl-8-cyclopentyl-5-methyl-7-oxo-7,8-dihydropyrido[2,3-d]pyrimidin-2-yl)amino)pyridin-3-yl)piperazin-1-yl)methyl)-N-(2-(2,6-dioxopiperidin-3-yl)-1-oxoisoindolin-5-yl)piperidine-1-carboxamide] | 50 to 200 nM | 50 to 200 nM | > 80% | 50 to 200 nM | > 80%
5 | Cc1nc2c(F)cc(-c3nc(Nc4ccc(CN5CCN(C(=O)C6CN(c7ccc(C(=O)NC8CCC(=O)NC8=O)cc7)C6)CC5)cn4)ncc3F)cc2n1C(C)C (stereo not drawn) [Compound 137, N-(2,6-dioxopiperidin-3-yl)-4-(3-(4-((6-((5-fluoro-4-(4-fluoro-1-isopropyl-2-methyl-1H-benzo[d]imidazol-6-yl)pyrimidin-2-yl)amino)pyridin-3-yl)methyl)piperazine-1-carbonyl)azetidin-1-yl)benzamide] | 50 to 200 nM | 50 to 200 nM | > 60% | 50 to 200 nM | > 60%
6 | CC(=O)c1c(C)c2cnc(Nc3ccc(C4CCN(CC5CN(c6ccc(C(=O)NC7CCC(=O)NC7=O)cc6)C5)CC4)cn3)nc2n(C2CCCC2)c1=O (stereo not drawn) [Compound 127, 4-(3-((4-(6-((6-acetyl-8-cyclopentyl-5-methyl-7-oxo-7,8-dihydropyrido[2,3-d]pyrimidin-2-yl)amino)pyridin-3-yl)piperidin-1-y)methyl)azetidin-1-yl)-N-(2,6-dioxopiperidin-3-yl)benzamide] | < 50 nM | 50 to 200 nM | > 80% | 50 to 200 nM | > 80%
7 | CC(=O)c1c(C)c2cnc(Nc3ccc(C4CCN(CC5CN(c6ccc7c(c6)CN(C6CCC(=O)NC6=O)C7=O)C5)CC4)cn3)nc2n(C2CCCC2)c1=O (stereo not drawn) [Compound 126, 3-(5-(3-((4-(6-((6-acetyl-8-cyclopentyl-5-methyl-7-oxo-7,8-dihydropyrido[2,3-d]pyrimidin-2-yl)amino)pyridin-3-yl)piperidin-1-yl)methyl)azetidin-1-yl)-1-oxoisoindolin-2-yl) piperidine-2,6-dione] | < 50 nM | < 50 nM | > 80% | < 50 nM | > 80%
8 | CC(=O)c1c(C)c2cnc(Nc3ccc(N4CCN(CCCNc5cc6c(cc5F)C(=O)N(C5CCC(=O)NC5=O)C6=O)CC4)cn3)nc2n(C2CCCC2)c1=O (stereo not drawn) [Compound 51, 5-((3-(4-(6-((6-acetyl-8-cyclopentyl-5-methyl-7-oxo-7,8-dihydropyrido[2,3-d]pyrimidin-2-yl)amino)pyridin-3-yl)piperazin-1-yl)propyl)amino)-2-(2,6-dioxopiperidin-3-yl)-6-fluoroisoindoline-1,3-dione] | < 50 nM | 50 to 200 nM | > 80% | 50 to 200 nM | > 80%
9 | CC(=O)c1c(C)c2cnc(Nc3ccc(N4CCN(CC5CCN(c6ccc7c(c6)CN(C6CCC(=O)NC6=O)C7=O)CC5)CC4)cn3)nc2n(C2CCCC2)c1=O (stereo not drawn) [Compound 66, 3-(5-(4-((4-(6-((6-acetyl-8-cyclopentyl-5-methyl-7-oxo-7,8-dihydropyrido[2,3-d]pyrimidin-2-yl)amino)pyridin-3-yl)piperazin-1-yl)methyl)piperidin-1-yl)-1-oxoisoindolin-2-yl)piperidine-2,6-dione] | < 50 nM | < 50 nM | > 80% | 50 to 200 nM | > 80%
10 | Cc1nc2c(F)cc(-c3nc(Nc4ccc(CC5CCN(C6CCN(c7ccc8c(c7)C(=O)N(C7CCC(=O)NC7=O)C8=O)CC6)CC5)cn4)ncc3F)cc2n1C(C)C (stereo not drawn) [Compound 169, 2-(2,6-dioxopiperidin-3-yl)-5-(4-((6-((5-fluoro-4-(4-fluoro-1-isopropyl-2-methyl-1H-benzo[d]imidazol-6-yl)pyrimidin-2-yl)amino)pyridin-3-yl)methyl)-[1,4′-bipiperidin]-1′-yl)isoindoline-1,3-dione] | < 50 nM | 50 to 200 nM | > 80% | 50 to 200 nM | > 80%
11 | Cc1nc2c(F)cc(-c3nc(Nc4ccc(CC5CCN(CC6CCN(c7ccc8c(c7)CN(C7CCC(=O)NC7=O)C8=O)CC6)CC5)cn4)ncc3F)cc2n1C(C)C (stereo not drawn) [Compound 158, 3-(5-(4-((4-((6-((5-fluoro-4-(4-fluoro-1-isopropyl-2-methyl-1H-benzo[d]imidazol-6-yl)pyrimidin-2-yi)amino)pyridin-3-yl)methyl)piperidin-1-yl)methyl)piperidin-1-yl)-1-oxoisoindolin-2-yl)piperidine-2,6-dione] | < 50 nM | 50 to 200 nM | > 80% | 50 to 200 nM | > 80%
12 | Cc1nc2c(F)cc(-c3nc(Nc4ccc(CN5CCN(CCCNc6ccc(N7CCC(=O)NC7=O)cc6)CC5)cn4)ncc3F)cc2n1C(C)C [Compound 107, 1-(4-((3-(4-((6-((5-fluoro-4-(4-fluoro-1-isopropyl-2-methyl-1H-benzo[d]imidazol-6-yl)pyrimidin-2-yl)amino)pyridin-3-yl)methyl)piperazin-1-yl)propyl)amino)phenyl)dihydro-pyrimidine-2,4 (1H,3H)-dione] | < 50 nM | < 50 nM | > 80% | < 50 nM | > 80%
13 | CC(=O)c1c(C)c2cnc(Nc3ccc(N4CCN(C(=O)N5CCC(CCC6CCN(c7ccc8c(c7)CN(C7CCC(=O)NC7=O)C8=O)CC6)CC5)CC4)cn3)nc2n(C2CCCC2)c1=O (stereo not drawn) [Compound 26, 3-(5-(4-(2-(1-(4-(6-((6-acetyl-8-cyclopentyl-5-methyl-7-oxo-7,8-dihydropyrido[2,3-d]pyrimidin-2-yl)amino)pyridin-3-yl)piperazine-1-carbonyl)piperidin-4-yl)ethyl)piperidin-1-yl)-1-oxoisoindolin-2-yl)piperidine-2,6-dione] | 50 to 200 nM | > 200 nM | > 50% | > 200 nM | > 50%
14 | CC(=O)c1c(C)c2cnc(Nc3ccc(N4CCN(CCNc5ccc6c(c5)CN(C5CCC(=O)NC5=O)C6=O)CC4)cn3)nc2n(C2CCCC2)c1=O (stereo not drawn) [Compound 48, 3-(5-((2-(4-(6-((6-acetyl-8-cyclopentyl-5-methyl-7-oxo-7,8-dihydropyrido[2,3-d]pyrimidin-2-yl)amino)pyridin-3-yl)piperazin-1-yl)ethyl)amino)-1-oxoisoindolin-2-yl)piperidine-2,6-dione] | < 50 nM | < 50 nM | > 80% | < 50 nM | > 80%
15 | Cc1nc2c(F)cc(-c3nc(Nc4ccc(CN5CCN(CCNc6ccc7c(c6)C(=O)N(C6CCC(=O)NC6=O)C7)CC5)cn4)ncc3F)cc2n1C(C)C (stereo not drawn) [Compound 91, 3-(6-((2-(4-((6-((5-fluoro-4-(4-fluoro-1-isopropyl-2-methyl-1H-benzo[d]imidazol-6-yl)pyrimidin-2-yl)amino)pyridin-3-yl)methyl)piperazin-1-yl)ethyl)amino)-1-oxoisoindolin-2-yl)piperidine-2,6-dione] | < 50 nM | < 50 nM | > 80% | < 50 nM | > 80%
